These results are taken from BindingDB's records for patent US11414428 (Auckland UniServices Limited, 2022).

Structures are written as SMILES.

The experiment deals with Indoleamine 2,3-dioxygenase 1 (Homo sapiens, UniProt P14902). Nature of the experiment: Enzymatic Assay. Here is the method: Recombinant human IDO1 (rhIDO1) was expressed and purified from cultures of EC538 strain of E. coli transformed with pREP4 and pQE9-IDO plasmid. Reaction mixes were set up in 384-well microplates containing 50 mM phosphate buffer, 10 mM ascorbic, 10 μM methylene blue, 100 μg/mL catalase, 80 μM TRP, 0.01% Tween 20 (v/v) mixed with rhIDO1 (15 μL) at a final concentration of 9 nM in a total volume of 30 μL assay medium. The plates were incubated at 37° C. for 30 min, and the enzymatic reaction was terminated by adding piperidine (200 mM) and heated at 65° C. for 20 min. Fluorescence intensity was read at λex 400 nm and λem 500 nm. Test compounds were dissolved in 100% DMSO and pre-diluted in assay medium prior to adding rhIDO1.
Chain of Indoleamine 2,3-dioxygenase 1 (P14902 whole entry): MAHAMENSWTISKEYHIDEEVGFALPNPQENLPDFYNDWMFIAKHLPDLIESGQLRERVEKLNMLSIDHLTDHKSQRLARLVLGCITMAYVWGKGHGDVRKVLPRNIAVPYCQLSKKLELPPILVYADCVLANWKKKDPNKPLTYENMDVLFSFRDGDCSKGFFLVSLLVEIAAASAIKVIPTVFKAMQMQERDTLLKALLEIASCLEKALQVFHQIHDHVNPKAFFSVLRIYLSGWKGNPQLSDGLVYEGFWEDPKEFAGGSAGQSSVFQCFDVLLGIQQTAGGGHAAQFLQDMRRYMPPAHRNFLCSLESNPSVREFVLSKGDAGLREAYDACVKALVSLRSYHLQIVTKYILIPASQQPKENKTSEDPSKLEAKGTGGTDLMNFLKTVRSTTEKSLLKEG

As for `Cc1nc2onc(N)c2c(C)c1Cl` [US11414428, Compound 1], the IC50 result is “in the range around 5.5 µM”.

One may read the IC50 as the concentration that inhibits the measured activity by half. Read a low IC50 as greater potency in that assay.
